{"source": "paper PMC10641818", "about": "“Development of First-in-Class Dual Sirt2/HDAC6 Inhibitors as Molecular Tools for Dual Inhibition of Tubulin Deacetylation” (Journal of Medicinal Chemistry, 2023)", "key": {"[1]": {"tested_on": "histone H3 acetylation (marker of HDAC1-3 inhibition)", "experiment": "Western blot on histone H3 hyperacetylation in MCF-7 cells", "format": "cell-based", "settings": "24 h, 10 µM", "experimental": "Western blots on histone H3 hyperacetylation in MCF-7 cells were performed according to a previously published protocol.[72] In brief, MCF-7 were centrifuged (450g, 4 min, 22 °C) and lysed with cell extraction buffer (Thermo Fisher), supplemented with 0.1 mM PMSF, Halt Protease Inhibitor (Thermo Fisher), and Natriumorthovanadat (Thermo Fisher). Precast gels with a polymerization degree of 4–15% were used (Mini-PROTEAN TGX Stain-Free; Bio-Rad Laboratories GmbH, Munich, Germany). Proteins were transferred to Trans-Blot Turbo-PVDF membrane (Bio-Rad). The membrane was blocked with skimmed milk powder in Tris-buffered saline-Tween 20 (with 0.2% Tween 20) for 60 min, followed by three washing cycles of 10 min using Tris-buffered saline-Tween 20. Afterward, membranes were incubated with primary antibodies for ac.-Histon H3 (Cell Signal, rabbit) and GAPDH (Gene Tex, Irvine, USA, mouse) for a total of 60 min at room temperature and then incubated at 4 °C overnight. […] After rinsing of the secondary antibody, membranes were detected using ClarityECL Western Blotting Substrate (Bio-Rad). For quantitative determination, the StainFree technique was employed (Bio-Rad), as well as normalization, against the housekeeping protein GAPDH, which allows the imaging of whole lysates in SDS-PAGE before blotting and normalization against the total protein. […]"}, "[2]": {"tested_on": "MCF-7 breast cancer cells", "experiment": "Cell viability assay (MTT) MCF-7", "format": "cell-based", "settings": "72 h, @ 50 μM", "experimental": "(§1) Cell viability assays of HGC27 and PC-3M-luc cells were performed by using the Celltiter 96 Aqueous Nonradioactive Proliferation Assay (Promega). Cells were seeded in sterile 96-well plates at a density of 2000 cells per well and incubated overnight at 37 °C and 5% CO2. Compound or vehicle were added to a final concentration of 0.5% DMSO. […] Cells were seeded at densities of 10^4 cells/well for W1 cells or 2 × 10^3 cells/well for MCF-7 cells. Tests were performed in 96-well plates (Sarstedt AG, Nümbrecht, Germany). After incubation overnight, cells were supplemented with half logarithmic dilution series of the indicated compounds and DPBS (PAN Biotech GmbH, Aidenbach, Germany) as control. Then 72 h after addition of cytostatic treatment, the MTT solution (20 μL, 5 mg/mL) was added into the wells for 1 h at 37 °C and 5% CO2 until formazan crystals were formed. The supernatant was removed, and the cells were dissolved in 200 μL of DMSO. Absorption was analyzed at 570 nm, with background subtraction at 690 nm, using a plate reader (Thermomultiscan EX, Thermo, Schwerte, Germany). Cell viability was then determined by nonlinear regression and a four-parameter logistic equation with variable hill slope. […] The significance of the difference of the effects of 33 and 4 + 57 was determined by using an unpaired, two-tailed t test with Welch’s correction, implemented in GraphPad Prism 8.4.0 (GraphPad, USA). Statistical significance was accepted if p < 0.05. Asterisks indicate *p < 0.05, **p < 0.01."}, "[3]": {"tested_on": "PC-3M-luc prostate cancer cells", "experiment": "Cell viability assay (MTS) PC-3M-luc", "format": "cell-based", "settings": "72 h, @ 50 μM", "experimental": "as §1"}, "[4]": {"tested_on": "HGC27 gastric carcinoma cells", "experiment": "Cell viability assay (MTS) HGC27", "format": "cell-based", "settings": "72 h, @ 50 μM", "experimental": "as §1"}, "W1 ovarian cancer cells": {"tested_on": "W1 ovarian cancer cells", "experiment": "Cell viability assay (MTT) W1", "format": "cell-based", "settings": "72 h, @ 50 μM", "experimental": "as §1"}, "Sirt2 (demyristoylation)": {"biological_target": "Sirt2 (demyristoylation) (Homo sapiens, UniProt Q8IXJ6)", "sequence (Q8IXJ6 whole entry)": "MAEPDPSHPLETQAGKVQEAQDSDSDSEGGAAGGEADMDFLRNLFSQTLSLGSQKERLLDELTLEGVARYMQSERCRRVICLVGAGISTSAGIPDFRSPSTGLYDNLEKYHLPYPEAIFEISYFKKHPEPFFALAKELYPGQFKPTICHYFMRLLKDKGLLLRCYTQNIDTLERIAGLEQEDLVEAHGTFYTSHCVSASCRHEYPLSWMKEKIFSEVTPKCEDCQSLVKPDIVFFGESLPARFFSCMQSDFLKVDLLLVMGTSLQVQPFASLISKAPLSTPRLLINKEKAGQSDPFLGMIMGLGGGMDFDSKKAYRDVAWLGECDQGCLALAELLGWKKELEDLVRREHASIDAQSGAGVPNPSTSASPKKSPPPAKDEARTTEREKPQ", "experiment": "Continuous Sirt2 demyristoylation assay (myristoylated peptide substrate)", "format": "biochemical", "settings": "peptide-based myristoylated substrate, triplicate; read-out: Sirt2-mediated demyristoylation IC50", "experimental": "As a second method to confirm the inhibition of Sirt2-mediated demyristoylation by 33, we used a continuous Sirt2 demyristoylation assay as reported by Zessin et al.[48] In brief, this assay was performed in a black 384-well fluorescence plate in a total volume of 40 μL of Sirt assay buffer (20 mM Tris-HCl, 150 mM NaCl, 5 mg/mL MgCl2, 2 mg/mL BSA, pH 7.8). Dilution series of the inhibitor was done in DMSO. A total of 2 μL of the inhibitor dilutions were incubated with 14 μL of the peptide substrate, referred to as F4 in Zessin et al.[48] (final concentration 40 nM) and 14 μL of Sirt2 solution (final concentration 1 nM) for 5 min at room temperature. In addition to the inhibitor-containing samples, a sample without inhibitors was measured as a positive control, and a sample without enzymes was measured as a negative control. The DMSO concentration was set to 5% (v/v). The reaction was started by the addition of 10 μL of NAD^+ (final concentration 500 μM). The product formation was monitored by the change in fluorescence intensity, and the reaction rate represented the activity. Fluorescence readout was performed with a BMG Fluostar Omega plate reader at following wavelengths: Excitation wavelength: λEx = 485 ± 10 nm, emission wavelength: λEm = 530 ± 10 nm. Inhibition was calculated using the following equation: [drawing 1] […]"}, "α-tubulin acetylation": {"tested_on": "α-tubulin acetylation", "experiment": "Immunofluorescence microscopy of α-tubulin acetylation in PC-3M-luc cells", "format": "cell-based", "settings": "20 μM, 5 h", "experimental": "The detection of acetylation levels of α-tubulin by immunofluorescence was performed as previously described.[47] In brief, PC-3M-luc cells (25 000 cells per well) were plated in Ibidi 8-well slides (Ibidi, catalogue no. 80826) and incubated overnight at 37 °C, 5% CO2. Next, cells were treated with 20 μM of inhibitor. After 5 h, the medium was removed and the cells washed with PBS and fixed with 4% PFA for 8–10 min at ambient temperature. Cells were rinsed three times with PBS and lysed with extraction buffer (PBS, 0.1% Triton X-100) for 3–5 min at ambient temperature. After another washing step with PBS, blocking buffer (PBS, 0.1% Triton, 5% FCS) was added for at least 10 min before incubating with monoclonal acetylated α-tubulin antibody (1:500, Sigma-Aldrich, catalogue no. T6793) in blocking buffer overnight at 4 °C. […] The cells were rinsed two times with blocking buffer and once with PBS and DAPI in mounting medium ([…] HardSet Antifade Mounting Medium with DAPI, no. H-1500-10) diluted 1:50 in PBS was added and it was incubated for 10 min in the dark. Confocal microscopy was performed with a Leica SP8 confocal microscope equipped with a 40×/1.40 oil objective (Leica Microsystems) keeping the laser settings of the images constant to allow direct comparison of signal intensities between images."}}, "data": [{"smiles": "Cc1cc(C)nc(SCC(=O)Nc2ncc(Cc3cccc(OCc4cn(CCCCC(=O)NCc5ccc(C(=O)NO)cc5)nn4)c3)s2)n1", "note": "[Compound 32, 4-((5-(4-((3-((2-(2-((4,6-Dimethylpyrimidin-2-yl)thio)acetamido)thiazol-5-yl)methyl)phenoxy)methyl)-1H-1,2,3-triazol-1-yl)pentanamido)methyl)-N-hydroxybenzamide]", "values": [{"measurement": "Histone H3 hyperacetylation (cellular class I HDAC off-target inhibition)", "setting": "[1]", "result": "no significant off-target inhibition of class I"}, {"measurement": "MCF-7 cellular effect", "setting": "[2]", "result": "ni ^b (ni = no inhibition (cellular effect <20% @ 50 μM))"}, {"measurement": "PC-3M-luc cellular effect", "setting": "[3]", "result": "ni ^b (ni = no inhibition (cellular effect <20% @ 50 μM))"}, {"measurement": "HGC27 cellular effect", "setting": "[4]", "result": "ni ^b (ni = no inhibition (cellular effect <20% @ 50 μM))"}, {"measurement": "W1 cellular effect", "setting": "W1 ovarian cancer cells", "result": "ni ^b (ni = no inhibition (cellular effect <20% @ 50 μM))"}]}, {"smiles": "COCCn1cc(COc2cccc(Cc3cnc(NC(=O)CSc4nc(C)cc(C)n4)s3)c2)nn1", "note": "[Compound 5, SirReal1.2, reference compound]", "values": [{"measurement": "IC50", "setting": "Sirt2 (demyristoylation)", "result": "480 ± 120", "unit": "nM"}, {"measurement": "α-tubulin acetylation (immunofluorescence)", "setting": "α-tubulin acetylation", "result": "very minor"}]}]}
